Assay: Solubility in methylene chloride
Type: physicochemical
Conditions: in methylene chloride at about 25° C.
Experimental: In methylene chloride, on the other hand, the DMSO solvate according to the present invention is readily soluble at temperatures in the range as indicated in the preceding paragraph (solubility about 70 g/l at about 25° C.). […] Therefore dissolving the DMSO solvate methylene chloride results in that the compound of formula (I) precipitates from this solution. This precipitate of the compound of formula (I) is generally again of greater purity than the DMSO solvate dissolved, and of such a particle size, that it can very fast be filtered or centrifuged off from the solvent. Furthermore, the precipitate of compound of formula (I) is generally in substantially crystalline form when precipitated from methylene chloride. More particularly, the precipitate comprises the compound of formula (I) at least partially in form of single-crystals.

| SMILES | solubility |
| --- | --- |
| CC(C)(C)OC(=O)N1CC[C@@H](N2CC/C(=C\C3=C(C(=O)OC(c4ccccc4)c4ccccc4)N4C(=O)[C@@H](NC(=O)/C(=N\OC(c5ccccc5)(c5ccccc5)c5ccccc5)c5nsc(N)n5)[C@H]4SC3)C2=O)C1 [DMSO solvate] | about 70 g/l |
| CC(C)(C)OC(=O)N1CC[C@@H](N2CC/C(=C\C3=C(C(=O)OC(c4ccccc4)c4ccccc4)N4C(=O)[C@@H](NC(=O)/C(=N\OC(c5ccccc5)(c5ccccc5)c5ccccc5)c5nsc(N)n5)[C@H]4SC3)C2=O)C1 [compound of formula (I), (6R,7R)-7-{2-(5-Amino-[1,2,4]thiadiazol-3-yl)-2-[(Z)-trityloxyimino]-acetylamino}-3-[(R)-1′-tert-butoxycarbonyl-2-oxo-[1,3′]bipyrrolidinyl-3E-ylidenemethyl]-8-oxo-5-thia-1-aza-bicyclo[4.2.0]oct-2-ene-2-carboxylic acid benzhydryl ester] | about 8 g/l |

Source: patent US8865697B2, “Crystalline (6R,7R)-7-{2-(5-amino-[1,2,4] thiadiazol-3-yl)-2-[(Z)-trityloxyimino]-acetylamino}-3-[(R)-1′-tert-butoxycarbonyl-2-oxo-[1,3′]bipyrrolidinyl-(3E)-ylidenemethyl]-8-oxo-5-thia-1-aza-bicyclo[4.2.0]oct-2-ene-2-carboxylic acid benzhydryl ester; its manufacture and use” (Basilea Pharmaceutica AG, priority 2008, dated 2014)
